Experimental findings from PubChem BioAssay AID1337 (NMMLSC, 2008) are described below.

Molecules are shown by their SMILES. pEC50: −log10 of the molar value.

What is called pEC50 is the EC50 on a negative log10 scale, so that one unit is a factor of ten.

For the test, the target named is Ras-related protein Rab-2A (Canis lupus familiaris) (UniProt P61105). In words: potency of blocking fluorescent GTP on Rab2A – biochemical, GST-Rab2 beads, Bodipy-FL-GTP, flow cytometry, multiplex, dose response (AID 1337). The settings on record: Bead-bound GST-Rab2 wt, Bodipy-FL-GTP binding. In general terms: A flow cytometer gives signals particle by particle.
As for `COC(=O)c1c(N2C(=O)[C@H]3[C@@H](C2=O)[C@]2(C(=O)Nc4c(C)cc(C)cc42)N2CCC[C@@H]32)sc(C)c1C`, the pEC50 was 5.70.

For the molecule `OC(CNCCC1C=Nc2ccccc21)Cn1c2ccc(Cl)cc2c2cc(Cl)ccc21` (stereo not drawn), the negative logarithm of the EC50 (pEC50) was 4.58.

`O=[N+]([O-])c1cc2oc3c(c2c(C=NCc2ccccc2)c1O)CCCC3`: the negative-log EC50 (pEC50) was 5.40.
